Data reported in patent US20250304549A1, “HYDROXYAMIDE DERIVATIVE AND USE THEREOF” (SICHUAN HUIYU PHARMACEUTICAL CO., LTD., priority 2022, published 2025).
Counter-ions that a name gives are not always drawn.

Legend:
DU145 cells = test: In vitro cell inhibition assay - DU145 cell proliferation (CellTiter-Glo); format: cell-based
Procedure: 5. In Vitro Cell Inhibition Assay—DU145 Cell Proliferation
The inhibitory effect of the compounds on cell proliferation was assessed by detecting the number of viable cells using the CellTiter-Glo® reagent. DU145 cells in the logarithmic growth phase were collected and inoculated into transparent bottom 96-well plates at a density 1×10^3 cells per well with 100 μL medium, and incubated at 37° C., 5% CO2 overnight. The compounds were sequentially diluted in a 5-fold concentration gradient with DMSO to obtain 8 different concentrations. These were then diluted with RPMI-640 (containing 10% FBS) cell culture medium to obtain the compound working solution (2×), which was added to the cell supernatant at 100 μL per well. The incubation continued for 6 days at 37° C., 5% CO2. The plate was then removed and equilibrated at room temperature (25° C.) along with the CellTiter-Glo® mixing reagent for 10-30 minutes. After centrifugation, 120 μL of the culture medium was carefully aspirated from each well, and 60 μL of CellTiter-Glo® reagent was added. The cells were thoroughly mixed with the CellTiter-Glo® mixing reagent using a microplate shaker for 2 min. and then incubated at room temperature for 10 min. The 96-well plate was subsequently placed on a multifunctional microplate reader to record the Luminescence values (RLU).
The inhibition rate was calculated using the following formula: […]
Note: ‘Negative’ refers to the group without inhibitors; ‘Blank’ refers to the group without cells.
The IC50 value was determined by fitting the inhibition rate by GraphPad Prism software.

LSD1 = LSD1 (Homo sapiens (Human), UniProt O60341); test: In vitro enzyme inhibition assay - LSD1 (HTRF); format: biochemical
NCI-H69 cells = test: In vitro cell inhibition assay - NCI-H69 cell proliferation (CellTiter-Glo); format: cell-based
Procedure, shortened: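 7-day exposure at 37° C., 5% CO2 to compounds serially diluted 5-fold (8 concentrations) in RPMI-640 containing 20% FBS, after overnight attachment at 1×10^3 cells/well. Read-out: CellTiter-Glo luminescence (RLU); IC50 from curve fit of inhibition rate.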

pan-HDAC = test: In vitro enzyme inhibition assay - HDAC (HDAC-Glo I/II), pan-HDAC; format: biochemical
Procedure, shortened: (§1)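 The compound, serially diluted 5-fold in DMSO across 8 concentrations starting from a 1 mM stock, was made up as 4× working solutions in HDAC buffer. It was then tested in the HDAC-Glo I/II system, and luminescence was recorded. IC50 values came from variable-slope four-parameter curves of inhibition rate.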

NCI-H1417 cells = test: In vitro cell inhibition assay - H1417 cell proliferation (CellTiter-Glo); format: cell-based
Procedure, shortened: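 Cells exposed to 8 compound concentrations (5-fold dilutions) in BEGM with 10% FBS for 7 days at 37° C., 5% CO2. Viable cells measured by CellTiter-Glo luminescence; inhibition versus no-inhibitor and no-cell controls, IC50 fitted.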

HDAC8 = HDAC8 (Homo sapiens (Human), UniProt Q9BY41); test: In vitro enzyme inhibition assay - HDAC (HDAC-Glo I/II), HDAC8; format: biochemical; conditions: read-out: HDAC IC50 (nM) HDAC 8
HDAC8, sequence (Q9BY41 whole entry): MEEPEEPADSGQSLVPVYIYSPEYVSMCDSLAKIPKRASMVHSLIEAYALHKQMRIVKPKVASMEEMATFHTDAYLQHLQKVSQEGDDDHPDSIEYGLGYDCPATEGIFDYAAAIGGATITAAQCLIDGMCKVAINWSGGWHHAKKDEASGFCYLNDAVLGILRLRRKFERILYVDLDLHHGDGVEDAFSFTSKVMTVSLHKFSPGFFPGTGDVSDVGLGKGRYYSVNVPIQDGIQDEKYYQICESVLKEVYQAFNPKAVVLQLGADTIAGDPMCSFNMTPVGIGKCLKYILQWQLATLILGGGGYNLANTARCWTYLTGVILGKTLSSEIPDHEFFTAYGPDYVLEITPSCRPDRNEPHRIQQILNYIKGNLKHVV
Procedure, shortened: as §1

[1] = Homo sapiens, DU-145, Du145 prostate cancer cell proliferation
[2] = Homo sapiens, NCI-H69, H69 small cell lung cancer cell proliferation
[3] = Homo sapiens, NCI-H1417, H1417 small cell lung cancer cell proliferation
[4] = Du145 prostate cancer cell proliferation
[5] = H69 small cell lung cancer cell proliferation
[6] = H1417 small cell lung cancer cell proliferation

| Compound | IC50 (DU145 cells; [1]) [nM] | IC50 (LSD1) [nM] | IC50 (NCI-H69 cells; [2]) [nM] | IC50 (pan-HDAC) [nM] | IC50 (NCI-H1417 cells; [3]) [nM] | IC50 (HDAC8) [nM] | IC50 (DU145 cells; [4]) [nM] | IC50 (NCI-H69 cells; [5]) [nM] | IC50 (NCI-H1417 cells; [6]) [nM] |
| --- | --- | --- | --- | --- | --- | --- | --- | --- | --- |
| Cc1ccc(-c2c(OCCCCCCC(=O)NO)cc(N3CCC(N)CC3)nc2-c2ccc(C#N)c(F)c2)cc1 [Example 7, 7-[(6-(4-Aminopiperidin-1-yl)-2-(4-cyano-3-fluorophenyl)-3-(4-methylphenyl)pyridin-4-yl)oxy]-N-hydroxyheptanamide-hydrochloride] | 2960 | 36 | 2540 | 41.3 | 762 | – | – | – | – |
| COc1ccc(-c2c(OCCCCCCC(=O)NO)cc(N3CCC(N)CC3)nc2-c2ccc(C#N)c(F)c2)cc1 [Example 8, 7-[(6-(4-Aminopiperidin-1-yl)-2-(4-cyano-3-fluorophenyl)-3-(4-methoxyphenyl)pyridin-4-yl)oxy]-N-hydroxyheptanamide trifluoroacetate] | 2850 | 18.6 | 2530 | 21.7 | 501 | – | – | – | – |
| N#Cc1ccc(-c2nc(N3CCC(N)CC3)cc(OCCCCCCC(=O)NO)c2-c2ccc(Cl)cc2)cc1F [Example 11, 7-((6-(4-Aminopiperidin-1-yl)-3-(4-chlorophenyl)-2-(4-cyano-3-fluorophenyl)pyridin-4-yl)oxy)-N-hydroxyheptanamide hydrochloride] | 2000 | – | 2360 | 116 | > 1000 | – | – | – | – |
| CN(C)c1ncc(-c2c(OCCCCCCC(=O)NO)cc(N3CCC(N)CC3)nc2-c2ccc(C#N)c(F)c2)cn1 [Example 13, 7-((6-(4-Aminopiperidin-1-yl)-2-(4-cyano-3-fluorophenyl)-3-(2-(dimethylamino)pyrimidin-5-yl)pyridin-4-yl)oxy)-N-hydroxyheptanamide formate] | 2770 | 1.95 | 775 | 3.32 | 332 | – | – | – | – |
| COc1ccc(-c2c(OCCCCCCC(=O)NO)cc(N3CCC(N)CC3)nc2-c2ccc(C#N)c(C)c2)cc1O [Example 16, 7-((6-(4-Aminopiperidin-1-yl)-2-(4-cyano-3-methylphenyl)-3-(3-hydroxy-4-methoxyphenyl)pyridin-4-yl)oxy)-N-hydroxyheptanamide hydrochloride] | 3700 | 33.2 | 3640 | 4.23 | > 1000 | – | – | – | – |
| COc1ccc(-c2c(-c3ccc(C#N)c(F)c3)nc(N3CCC(NCc4ccc(/C=C/C(=O)NO)cc4)CC3)n3ccnc23)cc1O [Example 70, (E)-3-(4-(((1-(7-(4-Cyano-3-fluorophenyl)-8-(3-hydroxy-4-methoxyphenyl)imidazo[1,2-c]pyrimidin-5-yl)piperidin-4-yl)amino)methyl)phenyl)-N-hydroxyacrylamide formate] | 262 | 1.18 | 214 | 76.6 | 1.44 | 26.5 | – | – | – |
| COc1ccc(-c2cnc(N3CCC(NCc4ccc(/C=C/C(=O)NO)cc4)CC3)nc2-c2ccc(C#N)c(F)c2)cc1O [Example 71, (E)-3-(4-(((1-(4-(4-cyano-3-fluorophenyl)-5-(3-hydroxy-4-methoxyphenyl)pyrimidin-2-yl)piperidin-4-yl)amino)methyl)-N-hydroxyacrylamide formate] | – | 4.61 | – | 51.8 | – | 125 | 431 | 99 | 42.3 |
| COc1ccc(-c2ccc(C(=O)N3CC[C@H](NCc4ccc(/C=C/C(=O)NO)cc4)C3)cc2-c2ccc(C#N)c(F)c2)cc1O [Example 72, (S,E)-3-(4-(((1-(4″-cyano-3″-fluoro-3-hydroxy-4-methoxy-[1,1′:2′,1″-terphenyl]-4′-carbonylpyrrolidin-3-yl)amino)methyl)phenyl)-N-hydroxyacrylamide formate] | – | 8.42 | – | 110 | – | 160 | 2750 | 970 | 166 |
| COc1cc(-c2ccc(C(=O)N3CC[C@H](NCc4ccc(/C=C/C(=O)NO)cc4)C3)cc2-c2ccc(C#N)c(F)c2)ccc1O [Example 73, (S,E)-3-(4-(((1-(4″-Cyano-3″-fluoro-4-hydroxy-3-methoxy-[1,1]: 2′,1″-terphenyl]-4′-carbonyl)pyrrolidin-3-yl)amino)methyl)phenyl)-N-hydroxyacrylamide formate] | 2230 | 21.2 | 678 | 186 | 125 | 152 | – | – | – |
| COc1ccc(-c2ccc(CN3CC[C@H](NCc4ccc(/C=C/C(=O)NO)cc4)C3)cc2-c2ccc(C#N)c(F)c2)cc1O [Example 74, (S,E)-3-(4-(((1-((4″-cyano-3″-fluoro-3-hydroxy-4-methoxy-[1,1:2′,1″-terphenyl]-4′-yl)methyl)pyrrolidin-3-yl)amino)methyl)phenyl)-N-hydroxyacrylamide formate] | – | 2.26 | – | 23.1 | – | 207 | 553 | 205 | 40.1 |
| COc1cc(-c2ccc(CN3CC[C@H](NCc4ccc(/C=C/C(=O)NO)cc4)C3)cc2-c2ccc(C#N)c(F)c2)ccc1O [Example 75, (S,E)-3-(4-(((1-((4″-Cyano-3″-fluoro-4-hydroxy-3-methoxy-[1,1:2,1″-terphenyl]-4′-yl)methyl)pyrrolidin-3-yl)amino)methyl)phenyl)-N-hydroxyacrylamide formate] | 677 | 129 | 403 | 76.6 | 473 | 212 | – | – | – |
| COc1ccc(-c2cnc(N3CCC(Nc4cccc(/C=C/C(=O)NO)c4)CC3)c(C#N)c2-c2ccc(C#N)c(F)c2)cc1O [Example 81, (E)-3-(3-((1-(3-cyano-4-(4-cyano-3-fluorophenyl)-5-(3-hydroxy-4-methoxyphenyl)pyridin-2-yl)piperidin-4-yl)amino)phenyl)-N-hydroxyacrylamide formate] | 776 | 140 | 516 | 1220 | 73.9 | 695 | – | – | – |
| COc1ccc(-c2cnc(N3CCC(Nc4ncc(C(=O)NO)cn4)CC3)c(C#N)c2-c2ccc(C#N)c(F)c2)cc1O [Example 83, 2-((1-(3-Cyano-4-(4-cyano-3-fluorophenyl)-5-(3-hydroxy-4-methoxyphenyl)pyridin-2-yl)piperidin-4-yl)amino)-N-hydroxypyrimidine-5-carboxamide formate] | 2820 | 8.51 | 1140 | 438 | 76.8 | 374 | – | – | – |
| COc1ccc(-c2cnc(N3CCC(N)(c4ccc(/C=C/C(=O)NO)cc4)CC3)c(C#N)c2-c2ccc(C#N)c(F)c2)cc1O [Example 85, (E)-3-(4-(4-amino-1-(3-cyano-4-(4-cyano-3-fluorophenyl)-5-(3-hydroxy-4-methoxyphenyl)pyridin-2-yl))piperidin-4-yl)phenyl)-N-hydroxyacrylamide formate] | – | 209 | – | 110 | – | 542 | 1550 | 407 | 256 |
| COc1cc(-c2cnc(N3CCC(NCCc4cccc(/C=C/C(=O)NO)c4)CC3)c(C#N)c2-c2ccc(C#N)c(F)c2)ccc1O [Example 92, (E)-3-(3-(2-(1-(3-Cyano-4-(4-cyano-3-fluorophenyl)-5-(4-hydroxy-3-methoxyphenyl)pyridin-2-yl)piperidin-4-yl)amino)ethyl) phenyl)-N-hydroxyacrylamide formate] | 2370 | 1.41 | 497 | 340 | 63 | 623 | – | – | – |
